# Assay results: paper PMC10296347, “Identification of the Stapled α-Helical Peptide ATSP-7041 as a Substrate and Strong Inhibitor of OATP1B1 In Vitro” (Biomolecules, 2023)
# Biological target: CYP2C9 (Homo sapiens, UniProt P11712)
# Conditions: microsomes
# Procedure: Text S1. Supplementary Materials and Methods.
# Male Human Liver Pooled S9; Tokyo, Japan). Midazolam, midazolam-d4, 1ʹ-hydroxymidazolam, testosterone, testosterone-d3, and 6β-hydroxytestosterone, were purchased […]
# (Fluorometric)) were purchased from BioVision. Inc. (Milpitas, CA, USA). Reversed vesicles […]
# were commercially available.
# 2. Evaluation of ATSP-7041 as a substrate of CYPs
# S9, with or without the NADPH generation system. S9 (A), at a 2 mg/mL protein concentration […]
# The reaction solution (400 μL) was then
# 3. Evaluation of ATSP-7041 as an inhibitor of CYPs […]
# the manufacturer’s protocol. […]
# the indicated periods of times. The substrates, positive control inhibitors, and fluorescence […]
# Table S1. Parameters used in LC/MS analysis.
# Table S2. Substrates and positive control inhibitors used for CYPs inhibition screening.
# Residual activity (% of control, i.e. without test chemical for inhibition) of human CYPs with ATSP-7041 (10 μM) in CYPs inhibition screening. The activity of CYPs were calculated as background-corrected reaction rates using the linear phase of reaction progress […]
# curve. Data are presented as the mean ± S.D. (n = 3). *
# Analyte Transition Polarity Ion source voltage Source temp. Collision energy LC gradient program […]
# 5% B (0-1 min) - 45% B (3 min)
# CYP isoform Substrate Concentration Positive control inhibitor Concentration Detection Kit No. […]
# CYP2C9, sequence (P11712 whole entry): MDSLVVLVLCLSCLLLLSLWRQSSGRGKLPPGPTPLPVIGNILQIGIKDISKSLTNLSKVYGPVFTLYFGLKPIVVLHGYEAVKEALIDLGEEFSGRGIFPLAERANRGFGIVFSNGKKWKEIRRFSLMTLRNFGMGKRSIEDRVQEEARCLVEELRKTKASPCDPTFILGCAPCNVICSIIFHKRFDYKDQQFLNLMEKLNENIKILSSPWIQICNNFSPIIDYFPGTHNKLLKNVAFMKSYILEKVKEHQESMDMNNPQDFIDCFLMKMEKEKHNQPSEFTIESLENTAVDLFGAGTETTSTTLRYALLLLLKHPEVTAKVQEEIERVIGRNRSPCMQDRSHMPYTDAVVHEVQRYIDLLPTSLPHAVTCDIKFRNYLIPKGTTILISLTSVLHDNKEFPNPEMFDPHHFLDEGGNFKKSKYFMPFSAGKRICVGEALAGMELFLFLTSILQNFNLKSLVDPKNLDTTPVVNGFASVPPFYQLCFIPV
compound,measurement,value
Nc1ccc(S(=O)(=O)Nc2ccnn2-c2ccccc2)cc1 [Sulfaphenazole],"Residual activity (% of control) CYP2C9, positive control inhibitor",8.59 ± 2.06 % of control
